Laboratory results: ChEMBL document CHEMBL3832033, “DailyMed|setid=f21494ed-c5e8-4ddf-b140-ecd68c5c312b | CLARITHROMYCIN EXTENDED RELEASE - clarithromycin tablet, film coated, extended release|Ranbaxy Pharmaceuticals Inc”
Where “and” joins values, the source holds several entries; their conditions need not be identical. Identical values can stand only once.

What was measured:
Homo sapiens = assay: (§1) Pharmacokinetic parameters for Clarithromycin evaluated after single oral administration of 1000 or 2 x 500 mg Clarithromycin extended-release tablets to 34 adult volunteers under fasting and feeding conditions.; format: ADME, organism-based; design: dose 1000 mg, dose 2 x 500, route oral; settings: in vivo, po, dosed compound id 21, dosed compound name CLARITHROMYCIN, gender male and female, regimen Single dose, tissue Plasma
[1] = as §1; format: ADME, organism-based; design: dose 1000 mg, dose 2 x 500, route oral; settings: human, in vivo, dosed compound id 21, dosed compound name CLARITHROMYCIN, gender male and female, regimen Single dose, tissue Plasma

In the case of `CC[C@H]1OC(=O)[C@H](C)[C@@H](O[C@H]2C[C@@](C)(OC)[C@@H](O)[C@H](C)O2)[C@H](C)[C@@H](O[C@@H]2O[C@H](C)C[C@H](N(C)C)[C@H]2O)[C@](C)(OC)C[C@@H](C)C(=O)[C@H](C)[C@@H](O)[C@]1(C)O` [CLARITHROMYCIN], the Tmax (Homo sapiens; dietary status Fasting, dose 2 x 500 mg) is reported as 9.588 h, the “AUC(0-t)” value (Homo sapiens; dietary status Fasting) is reported as 37615.9151 ng·h/mL and the Tmax (Homo sapiens; dietary status Fed, dose 1000 mg) is reported as 6.118 h. For the same compound, the Tmax (Homo sapiens; dietary status Fed, dose 2 x 500 mg) was 6.235 h, the “AUC(0-t)” value (Homo sapiens; dietary status Fed) was 58485.5053 ng·h/mL and 60796.1185 ng·h/mL and the Cmax (Homo sapiens; dietary status Fed) was 3478.3286 ng/mL. The AUC ([1]; po, 1000 mg, dietary status Fasting, read-out: AUC(0-t)) was 36600 ng·h/mL, the Cmax ([1]; po, 1000 mg, dietary status Fed) was 3960 ng/mL and the Tmax ([1]; dietary status Fasting, dose 1000 mg, route oral) was 11 h.
